Laboratory results from paper PMC10924921, “Mi-2β promotes immune evasion in melanoma by activating EZH2 methylation” (Nature Communications, 2024).

What was measured:
Test in all cases: biochemical
Parameters in all cases: KINOMEscan active-site competition binding panel (468 kinase assays), per cent of control at 1000 nM
Conditions in all cases: KINOMEscan per cent of control (binding competition); read-out: Percent Control
BRAF(V600E) = BRAF(V600E) (Homo sapiens, UniProt P15056, V600E)
From the text: (§1) Figure S7 / Percent Control

BRSK1 = BRSK1 (Homo sapiens, UniProt Q8TDC3)
From the text: as §1

CDK11 = molecular target: T1, CDK11 (Homo sapiens, UniProt Q9BWU1)
T1 construct: gene CDK19
From the text: as §1

DAPK1 = DAPK1 (Homo sapiens, UniProt P53355)
From the text: as §1

[1] = molecular target: EGFR(L747-E749del, A750P) (Homo sapiens, UniProt P00533, A750P/DEL747-749)
Chain of EGFR(L747-E749del, A750P) (P00533 with tags, fused parts or gaps DEL747-749/A750P): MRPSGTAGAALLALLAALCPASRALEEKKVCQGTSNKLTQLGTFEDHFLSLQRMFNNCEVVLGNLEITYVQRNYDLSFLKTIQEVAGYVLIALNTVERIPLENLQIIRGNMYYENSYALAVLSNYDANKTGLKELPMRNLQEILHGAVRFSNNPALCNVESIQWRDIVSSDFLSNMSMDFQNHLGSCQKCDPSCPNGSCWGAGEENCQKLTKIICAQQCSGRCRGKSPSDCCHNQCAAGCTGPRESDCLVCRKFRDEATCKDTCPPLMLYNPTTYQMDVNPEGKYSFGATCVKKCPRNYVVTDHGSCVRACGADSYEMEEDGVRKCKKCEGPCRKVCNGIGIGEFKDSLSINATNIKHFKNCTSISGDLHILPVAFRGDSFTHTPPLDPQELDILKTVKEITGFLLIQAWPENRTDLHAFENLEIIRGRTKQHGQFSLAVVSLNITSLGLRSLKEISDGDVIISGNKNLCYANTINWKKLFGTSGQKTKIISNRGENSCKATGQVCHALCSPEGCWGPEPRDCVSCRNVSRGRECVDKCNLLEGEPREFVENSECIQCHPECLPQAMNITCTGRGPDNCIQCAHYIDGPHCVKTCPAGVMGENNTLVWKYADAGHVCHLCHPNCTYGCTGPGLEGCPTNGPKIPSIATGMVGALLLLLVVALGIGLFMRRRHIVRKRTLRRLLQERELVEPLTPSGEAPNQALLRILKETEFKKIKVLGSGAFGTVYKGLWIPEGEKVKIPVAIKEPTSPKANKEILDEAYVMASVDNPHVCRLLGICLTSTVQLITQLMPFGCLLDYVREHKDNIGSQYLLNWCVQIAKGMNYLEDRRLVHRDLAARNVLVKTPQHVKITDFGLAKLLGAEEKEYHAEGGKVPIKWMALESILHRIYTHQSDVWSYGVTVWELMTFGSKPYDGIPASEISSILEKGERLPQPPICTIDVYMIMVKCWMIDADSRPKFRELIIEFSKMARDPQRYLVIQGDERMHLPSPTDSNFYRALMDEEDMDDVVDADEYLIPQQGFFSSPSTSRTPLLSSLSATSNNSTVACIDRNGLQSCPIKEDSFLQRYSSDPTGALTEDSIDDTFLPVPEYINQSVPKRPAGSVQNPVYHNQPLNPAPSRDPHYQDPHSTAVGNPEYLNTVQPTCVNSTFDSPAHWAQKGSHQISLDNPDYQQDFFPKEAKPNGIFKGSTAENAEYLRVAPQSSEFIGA
From the text: as §1

EGFR(S752-I759del) = EGFR(S752-I759del) (Homo sapiens, UniProt P00533, DEL752-759)
From the text: as §1

FLT3 = FLT3 (Homo sapiens, UniProt P36888)
From the text: as §1

FLT3-autoinhibited = FLT3-autoinhibited (Homo sapiens, UniProt P36888)
From the text: as §1

GRK1 = GRK1 (Homo sapiens, UniProt Q15835)
From the text: as §1

KIT(V559D,T670I) = KIT(V559D,T670I) (Homo sapiens, UniProt P10721, T670I/V559D)
From the text: as §1

MST2 = molecular target: T2, MST2 (Homo sapiens, UniProt Q13188)
T2 construct: gene STK3
From the text: as §1

NDR1 = molecular target: T3, NDR1 (Homo sapiens, UniProt Q15208)
T3 construct: gene STK38
From the text: as §1

NDR2 = molecular target: T4, NDR2 (Homo sapiens, UniProt Q9Y2H1)
T4 construct: gene STK38L
From the text: as §1

NEK5 = NEK5 (Homo sapiens, UniProt Q6P3R8)
Chain of NEK5 (Q6P3R8 whole entry): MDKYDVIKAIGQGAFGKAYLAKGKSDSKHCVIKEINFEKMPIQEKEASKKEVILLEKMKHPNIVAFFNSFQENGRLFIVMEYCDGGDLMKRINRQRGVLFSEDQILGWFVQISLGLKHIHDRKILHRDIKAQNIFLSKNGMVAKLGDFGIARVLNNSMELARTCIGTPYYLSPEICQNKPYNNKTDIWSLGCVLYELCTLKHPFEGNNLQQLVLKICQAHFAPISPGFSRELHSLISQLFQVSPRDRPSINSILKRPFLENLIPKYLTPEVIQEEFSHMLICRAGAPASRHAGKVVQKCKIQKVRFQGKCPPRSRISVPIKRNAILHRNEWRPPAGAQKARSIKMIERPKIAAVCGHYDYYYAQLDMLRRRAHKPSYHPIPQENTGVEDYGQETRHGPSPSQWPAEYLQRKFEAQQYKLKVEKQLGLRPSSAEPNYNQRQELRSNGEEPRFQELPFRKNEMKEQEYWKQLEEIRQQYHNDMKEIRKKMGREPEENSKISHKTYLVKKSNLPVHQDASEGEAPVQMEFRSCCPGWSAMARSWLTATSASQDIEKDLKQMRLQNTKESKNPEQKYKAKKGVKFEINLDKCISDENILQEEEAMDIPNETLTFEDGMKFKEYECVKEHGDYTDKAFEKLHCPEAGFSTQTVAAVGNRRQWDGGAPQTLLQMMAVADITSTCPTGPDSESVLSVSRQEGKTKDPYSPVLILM
From the text: as §1

PAK1 = PAK1 (Homo sapiens, UniProt Q13153)
From the text: as §1

PFTK1 = molecular target: T5, PFTK1 (Homo sapiens, UniProt O94921)
T5 construct: gene CDK14
From the text: as §1

PRKD1 = PRKD1 (Homo sapiens, UniProt Q15139)
From the text: as §1

RIOK2 = RIOK2 (Homo sapiens, UniProt Q9BVS4)
From the text: as §1

RIOK3 = RIOK3 (Homo sapiens, UniProt O14730)
From the text: as §1

TGFBR1 = TGFBR1 (Homo sapiens, UniProt P36897)
Chain of TGFBR1 (P36897 whole entry): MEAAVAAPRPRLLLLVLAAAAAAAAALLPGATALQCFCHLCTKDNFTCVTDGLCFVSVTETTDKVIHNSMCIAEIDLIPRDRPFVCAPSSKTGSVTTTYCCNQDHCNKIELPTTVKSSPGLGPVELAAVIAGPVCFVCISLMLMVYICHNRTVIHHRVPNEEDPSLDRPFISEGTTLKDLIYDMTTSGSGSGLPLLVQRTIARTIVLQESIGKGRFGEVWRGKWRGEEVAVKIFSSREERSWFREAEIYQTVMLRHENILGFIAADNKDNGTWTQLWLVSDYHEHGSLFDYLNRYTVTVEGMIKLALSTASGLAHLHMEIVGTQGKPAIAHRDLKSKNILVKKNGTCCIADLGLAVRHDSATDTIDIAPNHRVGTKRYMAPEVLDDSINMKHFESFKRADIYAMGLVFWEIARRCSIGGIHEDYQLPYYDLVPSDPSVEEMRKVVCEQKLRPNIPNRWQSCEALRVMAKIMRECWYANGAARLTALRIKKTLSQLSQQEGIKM
From the text: as §1

TLK1 = TLK1 (Homo sapiens, UniProt Q9UKI8)
From the text: as §1

TRKC = molecular target: T6, TRKC (Homo sapiens, UniProt Q16288)
T6 construct: gene NTRK3
From the text: as §1

TXK = TXK (Homo sapiens, UniProt P42681)
Chain of TXK (P42681 whole entry): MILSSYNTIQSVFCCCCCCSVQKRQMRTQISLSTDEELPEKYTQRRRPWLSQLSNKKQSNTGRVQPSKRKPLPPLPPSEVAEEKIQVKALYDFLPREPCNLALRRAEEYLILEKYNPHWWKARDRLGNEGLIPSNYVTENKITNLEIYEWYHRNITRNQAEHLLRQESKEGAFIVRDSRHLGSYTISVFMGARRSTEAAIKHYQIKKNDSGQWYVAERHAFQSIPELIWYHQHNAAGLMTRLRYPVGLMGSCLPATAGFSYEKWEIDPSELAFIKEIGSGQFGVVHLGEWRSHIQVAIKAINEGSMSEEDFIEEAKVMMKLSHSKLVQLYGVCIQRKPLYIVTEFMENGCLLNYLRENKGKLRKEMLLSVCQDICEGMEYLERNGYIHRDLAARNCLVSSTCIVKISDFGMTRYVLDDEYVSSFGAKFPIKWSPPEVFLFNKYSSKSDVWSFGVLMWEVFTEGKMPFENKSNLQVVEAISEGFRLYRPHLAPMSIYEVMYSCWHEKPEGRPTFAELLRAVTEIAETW
From the text: as §1

WNK3 = WNK3 (Homo sapiens, UniProt Q9BYP7)
Chain of WNK3 (Q9BYP7 whole entry): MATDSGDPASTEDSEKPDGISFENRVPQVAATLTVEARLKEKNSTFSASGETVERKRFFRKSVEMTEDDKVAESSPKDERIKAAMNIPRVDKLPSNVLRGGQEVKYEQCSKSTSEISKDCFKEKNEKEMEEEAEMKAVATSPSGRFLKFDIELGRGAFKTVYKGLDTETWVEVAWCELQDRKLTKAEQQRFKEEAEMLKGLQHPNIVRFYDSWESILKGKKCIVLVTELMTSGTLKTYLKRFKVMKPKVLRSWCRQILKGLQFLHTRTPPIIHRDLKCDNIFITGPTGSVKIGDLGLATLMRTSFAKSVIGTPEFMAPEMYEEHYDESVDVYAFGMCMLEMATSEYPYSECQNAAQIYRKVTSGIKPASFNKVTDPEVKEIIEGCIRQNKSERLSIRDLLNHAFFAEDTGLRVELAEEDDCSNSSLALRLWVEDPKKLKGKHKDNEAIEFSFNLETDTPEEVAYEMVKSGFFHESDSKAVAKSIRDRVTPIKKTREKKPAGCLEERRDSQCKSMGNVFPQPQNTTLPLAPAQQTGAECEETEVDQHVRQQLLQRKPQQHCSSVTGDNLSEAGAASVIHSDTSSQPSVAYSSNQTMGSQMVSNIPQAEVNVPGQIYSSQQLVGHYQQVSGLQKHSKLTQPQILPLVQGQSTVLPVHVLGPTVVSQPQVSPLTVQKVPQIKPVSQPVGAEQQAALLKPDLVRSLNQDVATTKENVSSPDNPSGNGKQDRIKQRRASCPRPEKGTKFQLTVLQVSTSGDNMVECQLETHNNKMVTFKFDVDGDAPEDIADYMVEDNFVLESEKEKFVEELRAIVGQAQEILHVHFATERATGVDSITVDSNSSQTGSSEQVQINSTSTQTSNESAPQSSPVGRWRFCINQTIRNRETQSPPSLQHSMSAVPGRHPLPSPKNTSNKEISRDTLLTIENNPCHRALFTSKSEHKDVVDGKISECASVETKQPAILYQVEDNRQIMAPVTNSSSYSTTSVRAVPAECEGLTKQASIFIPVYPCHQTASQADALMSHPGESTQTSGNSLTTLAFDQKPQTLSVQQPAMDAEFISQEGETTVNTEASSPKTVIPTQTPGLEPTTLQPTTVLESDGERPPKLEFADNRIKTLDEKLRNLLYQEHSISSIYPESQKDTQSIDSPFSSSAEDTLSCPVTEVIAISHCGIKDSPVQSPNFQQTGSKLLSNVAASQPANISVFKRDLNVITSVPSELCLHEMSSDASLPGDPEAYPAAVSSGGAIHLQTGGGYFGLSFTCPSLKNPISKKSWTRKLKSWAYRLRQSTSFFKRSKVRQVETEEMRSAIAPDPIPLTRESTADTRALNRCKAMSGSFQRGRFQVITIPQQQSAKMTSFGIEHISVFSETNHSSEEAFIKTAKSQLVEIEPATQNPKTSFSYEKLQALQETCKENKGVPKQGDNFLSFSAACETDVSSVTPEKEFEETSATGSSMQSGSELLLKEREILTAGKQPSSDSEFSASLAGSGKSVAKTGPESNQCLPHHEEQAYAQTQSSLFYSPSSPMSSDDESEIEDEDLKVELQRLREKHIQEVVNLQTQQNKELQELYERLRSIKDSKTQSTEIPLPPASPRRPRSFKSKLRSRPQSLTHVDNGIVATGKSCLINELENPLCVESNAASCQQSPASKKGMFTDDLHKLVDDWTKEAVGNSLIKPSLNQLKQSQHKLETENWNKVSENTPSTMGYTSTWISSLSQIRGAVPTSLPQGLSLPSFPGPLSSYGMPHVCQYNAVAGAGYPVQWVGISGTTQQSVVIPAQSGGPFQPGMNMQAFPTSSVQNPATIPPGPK
From the text: as §1

Cn1c(=O)[nH]c2ccc(-c3cccc(C(=O)NC4CCn5ccnc5C4)c3)cc21 (stereo not drawn) [Z36-MP5]
remaining binding at 1 µM (BRAF(V600E)): 89%
remaining binding at 1 µM (BRSK1): 92%
remaining binding at 1 µM (CDK11): 82%
remaining binding at 1 µM (DAPK1): 99%
remaining binding at 1 µM [1]: 90%
remaining binding at 1 µM (EGFR(S752-I759del)): 55%
remaining binding at 1 µM (FLT3): 95%
remaining binding at 1 µM (FLT3-autoinhibited): 51%
remaining binding at 1 µM (GRK1): 29%
remaining binding at 1 µM (KIT(V559D,T670I)): 86%
remaining binding at 1 µM (MST2): 93%
remaining binding at 1 µM (NDR1): 81%
remaining binding at 1 µM (NDR2): 74%
remaining binding at 1 µM (NEK5): 90%
remaining binding at 1 µM (PAK1): 87%
remaining binding at 1 µM (PFTK1): 98%
remaining binding at 1 µM (PRKD1): 100%
remaining binding at 1 µM (RIOK2): 84%
remaining binding at 1 µM (RIOK3): 100%
remaining binding at 1 µM (TGFBR1): 90%
remaining binding at 1 µM (TLK1): 90%
remaining binding at 1 µM (TRKC): 53%
remaining binding at 1 µM (TXK): 98%
remaining binding at 1 µM (WNK3): 69%
